Data: patent publication US10834951B2, “Organic compounds” (GIVAUDAN SA, priority 2013, dated 2020)

How the values were obtained:
[1] = Tasting by a professional panel in diluted low salt soy sauce
Description: Kikkoman low salt soy sauce was diluted 100 times. Part of the solution was kept as the reference. To another part was dosed a compound of formula (I). The solutions were tasted by a professional panel.
5.a: 0.1 ppm of 5-oxo-1-stearoylpyrrolidine-2-carboxylic acid (C18:0 pyro-Glu) was added to tap water containing 1% salt reduced kikoman soy sauce (9% salt).
5.b: 0.5 ppm of 5-oxo-1-palmitoylpyrrolidine-2-carboxylic acid (C16:0 pyro-Glu) was added to salt reduced kikoman soy sauce (9% salt).

[2] = Tasting in chicken bouillon base (0.7% salt, 0.5% fat)
Description: A compound of formula (I) in a concentration as indicated below was added to a chicken bouillon base (0.7% salt, 0.5% fat). The resultant composition was compared with a chicken bouillon without a compound of formula (I).

[3] = Tasting in fried potato snack product with cheese seasoning (35% fat)
Description: A snack product consisting of a fried potato base, containing 35% fat and flavored with cheese seasoning containing salt, MSG, dairy, organic acids, sugars, and a flavour formulation. A compound of formula (I) was added to the snack product at the indicated levels and the tasting results are reported as follows (compared with a snack product without a compound of formula (I)): […]

[4] = Expert tasting in mango flavoured still beverage
Description: In a Mango flavoured still beverage, sweetened with 8% sucrose & containing 0.1% citric acid and 1% clear mango juice flavoured with proprietary Mango flavour @ 0.05%, C16:0 pyro-Glu and C18:2-Theanine were added, as such (separate) and in combination.
All samples were evaluated by expert tasters. Tasters were asked to describe the samples focusing on authentic taste, juicy mouthfeel, enhancement, richness, juiciness, long lastingness, salivation, sweetness.
*Base: water, 8% sucrose, 0.1% citric acid, 1% clear mango juice (i.e. very low juice concentration), flavoured with Mango flavor (dosed at 0.05%).

[5] = Expert tasting in orange flavoured Tang powdered soft drink
Description: In an orange flavoured Tang powdered soft drink (market product) sweetened with sucrose plus high intensity sweetener and containing citric acid, C18:0 pyro-Glu, and C18:2-Theanine were tested.
All samples were evaluated by expert tasters. Tasters were asked to describe the samples focusing on authentic taste, mouthfeel & body, enhancement, richness, juiciness, long lastingness, salivation, sweetness, masking off notes of high intensity sweetener.

[6] = Tasting in brewed green tea against reference
Description: A green tea was brewed by taking 0.6 g of tea/100 ml of water. The water was heated to 80° C. and the tea leaves were left in the solution for 5 minutes. The tea solution was allowed to cool down to room temperature. Part of the solution was kept as a reference. To another part was added a compound of formula (I) in a concentration as indicated below. The solutions were tasted against the reference (i.e. a green tea without a compound of formula (I)).

[7] = 0.5 ppm in chicken bouillon base

Row | Structure (SMILES) | taste description versus reference ([1]; 0.5 ppm in salt reduced kikoman soy sauce (9% salt)) | taste description versus chicken bouillon without compound [2, 7] | taste description versus snack product without compound ([3]; 0.5 ppm in cheese flavoured fried potato snack) | taste description by expert tasters ([4]; 0.1 ppm in mango still beverage base) | taste description versus reference without the compound ([1]; 0.1 ppm in tap water containing 1% salt reduced kikoman soy sauce (9% salt)) | taste description versus chicken bouillon without compound ([2]; 0.2 ppm in chicken bouillon base) | taste description versus snack product without compound ([3]; 1 ppm in cheese flavoured fried potato snack) | taste description by expert tasters ([5]; 0.1 ppm in orange flavoured Tang base) | taste description versus green tea reference ([6]; 0.2 ppm in green tea) | taste description versus snack product without compound ([3]; 0.1 ppm in cheese flavoured fried potato snack) | taste description by expert tasters ([5]; 1 ppm in orange flavoured Tang base) | taste description by expert tasters ([4]; 1 ppm in mango still beverage base) | taste description versus green tea reference ([6]; 0.02 ppm in green tea) | taste description versus green tea reference ([6]; 1 ppb in green tea) | taste description versus green tea reference ([6]; 10 ppb in green tea)
1 | CCCCCCCCCCCCCCCC(=O)N1C(=O)CCC1C(=O)O (stereo not shown) [C16:0 pyro-Glu, 5-oxo-1-palmitoylpyrrolidine-2-carboxylic acid] | a stronger saltiness and to be more lingering, more umami | Nice strong salty, umami lingering body, better meat profile | more rich, more cheesy, more umami. More salty | very juicy and long lasting sweet, salivating |  |  |  |  |  |  |  |  |  |  | 
2 | CCCCCCCCCCCCCCCCCC(=O)N1C(=O)CCC1C(=O)O (stereo not shown) [C18:0 pyro-Glu, 5-oxo-1-stearoylpyrrolidine-2-carboxylic acid] |  |  |  |  | more body and to be more umami, more salty, longer lasting and richer | More umami lingering body, more salty, more rich | more full, more cheesy, longer lasting, more salty | enhanced fruitiness, enhanced mouthfeel. Additionally, the off-notes of the high intensity sweetener were suppressed | more complex and had more mouthfeel |  |  |  |  |  | 
3 | CCCCC/C=C\C/C=C\CCCCCCCC(=O)NC(CCC(=O)NCC)C(=O)O (stereo not shown) [C18:2-Theanine, 5-(ethylamino)-2-[(9Z,12Z)-octadeca-9,12-dienoylamino]-5-oxopentanoic acid] |  | More body and fatty notes, salivating |  |  |  |  |  |  |  | more fatty, more umami, more succulent | enhances sweet juicy orange notes,more body, more mouthfeel. Additionally, the off-notes of the high intensity sweetener were suppressed | fatty skin-like, very juicy, authentic mango, more mouthfeel, long lasting mango taste | better green tea character, was less bitter and had a better mouthfeel | more authentic tea than the reference and to have a nice balance between bitterness and astringency | more astringent, more body and somewhat more bitter umami than the reference
